Where no end group is shown, it is not given here.

The test system of this test is output of cAMP produced by 5×10^-9 M hPTH (1-34) in cultured mouse osteoblast MC3T3-E1. The test can be described thus: Determination of PTH antagonism: inhibition of cAMP output induced by hPTH (1-34) in cultured mouse osteoblast MC3T3-E1. Format: cell-based. The settings on record: Table 4, 50% inhibition of cAMP output by 5×10^-9 M hPTH (1-34), ratio to control Compound No. 15 = 1. The method, then:
PTH antagonism of the PTHrP derivatives (I) of the present invention was determined on the basis of the output of cAMP, using cultured mouse osteoblast MC3T3-E1.
To a multiwell-culture plate of 12-well were inoculated 1×10^5 cells/well of the cultured cells, and the plate was incubated at 37° C. under 95% air-5% CO2 atmosphere for 3 days after addition of α-modified MEM containing 10% semi-fetal bovine serum as a medium. Then, the medium was exchanged with α-modified MEM containing 1% bovine serum albumin and the cultured cells were incubated for 6 hours. The medium was replaced by α-modified MEM containing various concentrations of the compound of the present invention, 5×10^-9 M hPTH (1-34), 1% bovine serum albumin and 1 mM isobutylmethylxanthin, and the mixture was incubated for 1 hour. The medium was separated from the cells, and the medium was used as a sample for assaying cAMP. The cells were shaken with 90% n-propyl alcohol to extract cAMP according to Yamaguchi et al., J. Biol. Chem., 262, 7711-7718 (1987) for preparing another sample.
Assay of cAMP was performed using a commercially available cAMP-radioimmunoassay kit. […] Compound numbers in the tables correspond to those in Table 2.
With “[Leu^11,D-Trp^12 ]-hPTHrP(7-34)-NH2 [(Leu11,D--Trp12)--hPTHrP(7-34)--NH2, reference compound]”, the “IC50 Ratio” value is reported as 3.91. The value for `CC[C@H](C)[C@H](N)C(=O)N[C@@H](CCC(N)=O)C(=O)N[C@@H](CC(C)C)C(=O)N[C@@H](CCSC)C(=O)N[C@@H](Cc1c[nH]cn1)C(=O)N[C@@H](C)C(=O)N[C@@H](CCCCN)C(=O)NCC(=O)N[C@@H](CCCCN)C(=O)N[C@@H](CO)C(=O)N[C@H](C(=O)N[C@@H](CCC(N)=O)C(=O)N[C@@H](CC(=O)O)C(=O)N[C@@H](CC(C)C)C(=O)N[C@@H](CCCNC(=N)N)C(=O)N[C@@H](CCCNC(=N)N)C(=O)N[C@@H](CCCNC(=N)N)C(=O)N[C@@H](Cc1ccccc1)C(=O)N[C@@H](Cc1ccccc1)C(=O)N[C@@H](CC(C)C)C(=O)N[C@@H](Cc1c[nH]cn1)C(=O)N[C@@H](Cc1c[nH]cn1)C(=O)N[C@@H](CC(C)C)C(=O)N[C@H](C(=O)N[C@@H](C)C(=O)N[C@@H](CCC(=O)O)C(=O)N[C@H](C(=O)N[C@@H](Cc1c[nH]cn1)C(=O)N[C@H](C(=O)N[C@@H](C)C(N)=O)[C@@H](C)O)[C@@H](C)CC)[C@@H](C)CC)[C@@H](C)CC` [Compound No. 17] was 1.17; that for “IQLMHDKGKSIQDLRRRFFLHKLIAEIHTA-NH2 [Compound No. 20]” was 1.01; that for `CC[C@H](C)[C@H](NC(=O)[C@H](CC(C)C)NC(=O)[C@H](Cc1c[nH]cn1)NC(=O)[C@H](Cc1c[nH]cn1)NC(=O)[C@H](CC(C)C)NC(=O)[C@H](Cc1ccccc1)NC(=O)[C@H](Cc1ccccc1)NC(=O)[C@H](CCCNC(=N)N)NC(=O)[C@H](CCCNC(=N)N)NC(=O)[C@H](CCCNC(=N)N)NC(=O)[C@H](CC(C)C)NC(=O)[C@H](CC(=O)O)NC(=O)[C@H](CCC(N)=O)NC(=O)[C@@H](NC(=O)[C@H](CO)NC(=O)[C@H](CCCCN)NC(=O)CNC(=O)[C@H](CCCCN)NC(=O)[C@H](CC(=O)O)NC(=O)[C@H](Cc1c[nH]cn1)NC(=O)[C@H](CCSC)NC(=O)[C@H](CC(C)C)NC(=O)[C@H](CCC(N)=O)NC(=O)[C@@H](N)CC(C)C)[C@@H](C)CC)C(=O)N[C@@H](C)C(=O)N[C@@H](CCC(=O)O)C(=O)N[C@H](C(=O)N[C@@H](Cc1c[nH]cn1)C(=O)N[C@H](C(=O)N[C@@H](C)C(N)=O)[C@@H](C)O)[C@@H](C)CC` [Compound No. 9] was 1.02. On to `CCCC[C@H](NC(=O)[C@H](CCC(N)=O)NC(=O)[C@@H](N)[C@@H](C)CC)C(=O)N[C@@H](CCSC)C(=O)N[C@@H](Cc1c[nH]cn1)C(=O)N[C@@H](CC(=O)O)C(=O)N[C@@H](CCCCN)C(=O)NCC(=O)N[C@@H](CCCCN)C(=O)N[C@@H](CO)C(=O)N[C@H](C(=O)N[C@@H](CCC(N)=O)C(=O)N[C@@H](CC(=O)O)C(=O)N[C@@H](CC(C)C)C(=O)N[C@@H](CCCNC(=N)N)C(=O)N[C@@H](CCCNC(=N)N)C(=O)N[C@@H](CCCNC(=N)N)C(=O)N[C@@H](Cc1ccccc1)C(=O)N[C@@H](Cc1ccccc1)C(=O)N[C@@H](CC(C)C)C(=O)N[C@@H](Cc1c[nH]cn1)C(=O)N[C@@H](Cc1c[nH]cn1)C(=O)N[C@@H](CC(C)C)C(=O)N[C@H](C(=O)N[C@@H](C)C(=O)N[C@@H](CCC(=O)O)C(=O)N[C@H](C(=O)N[C@@H](Cc1c[nH]cn1)C(=O)N[C@H](C(=O)N[C@@H](C)C(N)=O)[C@@H](C)O)[C@@H](C)CC)[C@@H](C)CC)[C@@H](C)CC` [Compound No. 14], for which the “IC50 Ratio” value is 0.922. As for `CCCCCCCCCCCCCC(=O)N[C@H](C(=O)N[C@@H](CCC(N)=O)C(=O)N[C@@H](CC(C)C)C(=O)N[C@@H](CCSC)C(=O)N[C@@H](Cc1c[nH]cn1)C(=O)N[C@@H](CC(=O)O)C(=O)N[C@@H](CCCCN)C(=O)NCC(=O)N[C@@H](CCCCN)C(=O)N[C@@H](CO)C(=O)N[C@H](C(=O)N[C@@H](CCC(N)=O)C(=O)N[C@@H](CC(=O)O)C(=O)N[C@@H](CC(C)C)C(=O)N[C@@H](CCCNC(=N)N)C(=O)N[C@@H](CCCNC(=N)N)C(=O)N[C@@H](CCCNC(=N)N)C(=O)N[C@@H](Cc1ccccc1)C(=O)N[C@@H](Cc1ccccc1)C(=O)N[C@@H](CC(C)C)C(=O)N[C@@H](Cc1c[nH]cn1)C(=O)N[C@@H](Cc1c[nH]cn1)C(=O)N[C@@H](CC(C)C)C(=O)N[C@H](C(=O)N[C@@H](C)C(=O)N[C@@H](CCC(=O)O)C(=O)N[C@H](C(=O)N[C@@H](Cc1c[nH]cn1)C(=O)N[C@H](C(=O)N[C@@H](C)C(N)=O)[C@@H](C)O)[C@@H](C)CC)[C@@H](C)CC)[C@@H](C)CC)[C@@H](C)CC` [Compound No. 22], the “IC50 Ratio” value came out at 0.765. With `CC[C@H](C)[C@H](NC(C)=O)C(=O)N[C@@H](CCC(N)=O)C(=O)N[C@@H](CC(C)C)C(=O)N[C@@H](CCSC)C(=O)N[C@@H](Cc1c[nH]cn1)C(=O)N[C@@H](CC(=O)O)C(=O)N[C@@H](CCCCN)C(=O)NCC(=O)N[C@@H](CCCCN)C(=O)N[C@@H](CO)C(=O)N[C@H](C(=O)N[C@@H](CCC(N)=O)C(=O)N[C@@H](CC(=O)O)C(=O)N[C@@H](CC(C)C)C(=O)N[C@@H](CCCNC(=N)N)C(=O)N[C@@H](CCCNC(=N)N)C(=O)N[C@@H](CCCNC(=N)N)C(=O)N[C@@H](Cc1ccccc1)C(=O)N[C@@H](Cc1ccccc1)C(=O)N[C@@H](CC(C)C)C(=O)N[C@@H](Cc1c[nH]cn1)C(=O)N[C@@H](Cc1c[nH]cn1)C(=O)N[C@@H](CC(C)C)C(=O)N[C@H](C(=O)N[C@@H](C)C(=O)N[C@@H](CCC(=O)O)C(=O)N[C@H](C(=O)N[C@@H](Cc1c[nH]cn1)C(=O)N[C@H](C(=O)N[C@@H](C)C(N)=O)[C@@H](C)O)[C@@H](C)CC)[C@@H](C)CC)[C@@H](C)CC` [Compound No. 21], the “IC50 Ratio” value is reported as 0.934. The value for `CCCCCCCCCCCCCC(=O)N[C@@H](CCC(N)=O)C(=O)N[C@@H](CC(C)C)C(=O)N[C@@H](CCSC)C(=O)N[C@@H](Cc1c[nH]cn1)C(=O)N[C@@H](CC(=O)O)C(=O)N[C@@H](CCCCN)C(=O)NCC(=O)N[C@@H](CCCCN)C(=O)N[C@@H](CO)C(=O)N[C@H](C(=O)N[C@@H](CCC(N)=O)C(=O)N[C@@H](CC(=O)O)C(=O)N[C@@H](CC(C)C)C(=O)N[C@@H](CCCNC(=N)N)C(=O)N[C@@H](CCCNC(=N)N)C(=O)N[C@@H](CCCNC(=N)N)C(=O)N[C@@H](Cc1ccccc1)C(=O)N[C@@H](Cc1ccccc1)C(=O)N[C@@H](CC(C)C)C(=O)N[C@@H](Cc1c[nH]cn1)C(=O)N[C@@H](Cc1c[nH]cn1)C(=O)N[C@@H](CC(C)C)C(=O)N[C@H](C(=O)N[C@@H](C)C(=O)N[C@@H](CCC(=O)O)C(=O)N[C@H](C(=O)N[C@@H](Cc1c[nH]cn1)C(=O)N[C@H](C(=O)N[C@@H](C)C(N)=O)[C@@H](C)O)[C@@H](C)CC)[C@@H](C)CC)[C@@H](C)CC` [Compound No. 10] was 2.24.
